Laboratory results from ChEMBL document CHEMBL2057160, “Experimental and 'in silico' analysis of the effect of pH on HIV-1 protease inhibitor affinity: implications for the charge state of the protein ionogenic groups” (Bioorg Med Chem, 2012).

Legend:
Protease [1] = target: T1, Protease (Human immunodeficiency virus 1, UniProt Q9YQ12); experiment: Binding affinity to Human immunodeficiency virus 1 protease by SPR biosensor interaction analysis at pH 7.4
Protease [2] = target: T1, Protease; experiment: Binding affinity to Human immunodeficiency virus 1 protease by SPR biosensor interaction analysis at pH 5.1
Protease [3] = target: T1, Protease; experiment: Binding affinity to Human immunodeficiency virus 1 protease by SPR biosensor interaction analysis at pH 4.1

T1 sequence (Q9YQ12 whole entry): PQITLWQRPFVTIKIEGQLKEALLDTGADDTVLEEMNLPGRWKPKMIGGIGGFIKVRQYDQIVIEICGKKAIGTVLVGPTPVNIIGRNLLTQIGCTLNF

| SMILES | Kd (Protease [1]) [nM] | Kd (Protease [2]) [nM] | Kd (Protease [3]) [nM] |
| --- | --- | --- | --- |
| O=C1N(Cc2ccc(CO)cc2)[C@H](COc2ccccc2)[C@H](O)[C@@H](O)[C@@H](COc2ccccc2)N1Cc1ccc(CO)cc1 | 6.95 | 1.84 | 1.83 |
| Cc1c(O)cccc1C(=O)N[C@@H](CSc1ccccc1)[C@H](O)CN1C[C@H]2CCCC[C@H]2C[C@H]1C(=O)NC(C)(C)C | 3.4 | 2.99 | 37.6 |
| CC(=O)N[C@H](C(=O)N[C@H](C(=O)N[C@@H](CC(C)C)[C@@H](O)CC(=O)N[C@@H](C)C(=O)N[C@@H](CC(C)C)[C@@H](O)CC(=O)O)C(C)C)C(C)C [ACETYLPEPSTATIN] | 8150 | 759 | 208 |

More lines, in order of falling Kd (Protease [1]), values ahead:

| Kd (Protease [1]) [nM] | Kd (Protease [2]) [nM] | Kd (Protease [3]) [nM] | SMILES |
| --- | --- | --- | --- |
| 13.9 | 1 | 1.14 | O=C(N[C@H]1c2ccccc2C[C@H]1O)[C@H](OCc1ccccc1)[C@H](O)[C@@H](O)[C@@H](OCc1ccccc1)C(=O)N[C@H]1c2ccccc2C[C@H]1O |
| 10.8 | 3 | 2.97 | CNC(=O)[C@@H](NC(=O)[C@H](OCc1ccccc1)[C@H](O)[C@@H](O)[C@@H](OCc1ccccc1)C(=O)N[C@H](C(=O)NC)C(C)C)C(C)C |
